Experimental data from paper PMC7424068, “Design, Synthesis, and Biological Evaluation of Novel Thiazolidinone-Containing Quinoxaline-1,4-di-N-oxides as Antimycobacterial and Antifungal Agents” (Frontiers in Chemistry, 2020).
≈ marks a conversion by molar mass, not a printed value. Read-outs that look alike come from different tables or passages of the source.

Assays:
[1] = test system: Mtb H37Rv (ATCC27294); test: Antimycobacterial activity, microplate Alamar blue assay (MABA); assay type: cell-based, Mycobacterium tuberculosis; conditions: Mycobacterium tuberculosis, Mtb H37Rv
[2] = test system: C. albicans (ATCC90028); test: Antifungal activity, broth microdilution; assay type: cell-based, Candida albicans; conditions: Candida albicans ATCC 90028, read-out: MIC
Method: (§1) All synthesized compounds and the positive control drugs amphotericin B and ketoconazole were tested for their in vitro antifungal activity. Antifungal activity was evaluated against four fungi, C. albicans (ATCC90028), C. tropicalis (ATCC7349), A. fumigatus (3.5352), and C. neoformans (2.3201), by broth microdilution according to the protocols from the NCCLS (Jiang et al., [2014]). Briefly, all tested compounds were dissolved in DMSO, and the solutions were diluted with fresh broth medium. All of the fungi-seeded broth (1 × 10^5 colony-forming units [CFU]/mL) were prepared in RPMI 1640 medium and added into the serially diluted drug solution. The tubes were incubated at 28°C, and the MIC (μg/mL) was recorded 72–96 h post-incubation. Broth control (without fungi), growth controls (with fungi and without drug), solvent (DMSO) control, and drug control for both test drugs and standard drugs were set under identical conditions. The minimum drug concentration in the tubes in which no apparent growth of the organism was observed represented the MIC of the compounds.

[3] = test system: C. tropicalis (ATCC7349); test: Antifungal activity, broth microdilution; assay type: cell-based; conditions: Candida tropicalis, C. tropicalis ATCC 7349, read-out: MIC
Method: as §1

[4] = test system: A. fumigatus (3.5352); test: Antifungal activity, broth microdilution; assay type: cell-based; conditions: Aspergillus fumigatus; A. fumigatus 3.5352; read-out: MIC
Method: as §1

[5] = test system: C. neoformans (2.3201); test: Antifungal activity, broth microdilution; assay type: cell-based; conditions: Cryptococcus neoformans; C. neoformans 2.3201; read-out: MIC
Method: as §1

[6] = repeated in Table 5 for the 3D-QSAR models, read-out: MIC
[7] = experimental pMIC, Table 5, read-out: pMIC exp (converted)

Compound	melting point [°C]	MIC ([1]; MABA assay, read-out: MIC) [µg/mL]	MIC [1, 6] [µg/mL]	MIC [1, 7] [µM]	MIC [2] [µg/mL]	MIC [3] [µg/mL]	MIC [4] [µg/mL]	MIC [5] [µg/mL]
COc1ccc(N2C(=O)CSC2c2c[n+]([O-])c3ccc(Cl)cc3[n+]2[O-])cc1 (stereo not drawn) [2x, 7-Cl-2-(3′-P-methoxyphenyl-4′(5H)-thiazolidinone)-quinoxaline-1,4-di-N-oxide]	252 to 254	12.5	12.5	31	8 (≈ 19.8 µM)	8 (≈ 19.8 µM)	8 (≈ 19.8 µM)	8 (≈ 19.8 µM)
Cc1ccc(N2C(=O)CSC2c2c[n+]([O-])c3ccc(C)cc3[n+]2[O-])cc1 (stereo not drawn) [2h, 7-CH3-2-(3′-P-methylphenyl-4′(5H)-thiazolidinone)-quinoxaline-1,4-di-N-oxide]	257 to 259	25	25	68.1	32 (≈ 87.1 µM)	8 (≈ 21.8 µM)	64 (≈ 174 µM)	32 (≈ 87.1 µM)
COc1ccc(N2C(=O)CSC2c2c[n+]([O-])c3ccc(F)cc3[n+]2[O-])cc1 (stereo not drawn) [2s, 7-F-2-(3′-P-methoxyphenyl-4′(5H)-thiazolidinone)-quinoxaline-1,4-di-N-oxide]	251 to 253	25	25	64.6	8 (≈ 20.7 µM)	8 (≈ 20.7 µM)	8 (≈ 20.7 µM)	8 (≈ 20.7 µM)
O=C1CSC(c2c[n+]([O-])c3ccccc3[n+]2[O-])N1C1CC1 (stereo not drawn) [2f, 2-(3′-cyclopropyl-4′(5H)-thiazolidinone)-quinoxaline-1,4-di-N-oxide]	249 to 252	25	25	82.4	32 (≈ 105 µM)	16 (≈ 52.7 µM)	64 (≈ 211 µM)	64 (≈ 211 µM)
COc1ccc2c(c1)[n+]([O-])c(C1SCC(=O)N1c1ccc(Cl)cc1)c[n+]2[O-] (stereo not drawn) [2p, 7-OMe-2-(3′-P-chlorophenyl-4′(5H)-thiazolidinone)-quinoxaline-1,4-di-N-oxide]	253 to 256	50	50	124	64 (≈ 158 µM)	64 (≈ 158 µM)	> 64	32 (≈ 79.2 µM)
COc1ccc2c(c1)[n+]([O-])c(C1SCC(=O)N1c1ccccc1)c[n+]2[O-] (stereo not drawn) [2l, 7-OMe-2-(3′-phenyl-4′(5H)-thiazolidinone)-quinoxaline-1,4-di-N-oxide]	254 to 258	100	100	271	64 (≈ 173 µM)	32 (≈ 86.6 µM)	> 64	> 64
COc1ccc(N2C(=O)CSC2c2c[n+]([O-])c3ccccc3[n+]2[O-])cc1 (stereo not drawn) [2c, 2-(3′-P-methoxyphenyl-4′(5H)-thiazolidinone)-quinoxaline-1,4-di-N-oxide]	255 to 257	12.5	12.5	33.9	64 (≈ 173 µM)	32 (≈ 86.6 µM)	> 64	32 (≈ 86.6 µM)
COc1ccc2c(c1)[n+]([O-])c(C1SCC(=O)N1c1ccc(F)cc1)c[n+]2[O-] (stereo not drawn) [2o, 7-OMe-2-(3′-P-fluorophenyl-4′(5H)-thiazolidinone)-quinoxaline-1,4-di-N-oxide]	255 to 257	50	50	129	64 (≈ 165 µM)	64 (≈ 165 µM)	64 (≈ 165 µM)	32 (≈ 82.6 µM)
COc1ccc(N2C(=O)CSC2c2c[n+]([O-])c3ccc(C)cc3[n+]2[O-])cc1 (stereo not drawn) [2i, 7-CH3-2-(3′-P-methoxyphenyl-4′(5H)-thiazolidinone)-quinoxaline-1,4-di-N-oxide]	255 to 259	50	50	131	64 (≈ 167 µM)	32 (≈ 83.5 µM)	> 64	16 (≈ 41.7 µM)
COc1ccc(N2C(=O)CSC2c2c[n+]([O-])c3ccc(OC)cc3[n+]2[O-])cc1 (stereo not drawn) [2n, 7-OMe-2-(3′-P-methoxyphenyl-4′(5H)-thiazolidinone)-quinoxaline-1,4-di-N-oxide]	258 to 260	200	200	501	> 64	64 (≈ 160 µM)	> 64	> 64
O=C1CSC(c2c[n+]([O-])c3ccccc3[n+]2[O-])N1 (stereo not drawn) [VI, 2-(4'(5H)-thiazolone)-quinoxaline-1,4-di-N-oxide]		6.25						
